Laboratory results published in paper PMC7884382, “A Phase 1 study of RO6870810, a novel bromodomain and extra-terminal protein inhibitor, in patients with NUT carcinoma, other solid tumours, or diffuse large B-cell lymphoma” (British Journal of Cancer, 2020).
Where two headings read alike, the source gives them in different places.

Details: in vivo
Description: Patients were considered evaluable for safety if they received ≥1 injection of the study drug. All adverse events (AEs) were graded per the National Cancer Institute’s Common Terminology Criteria for Adverse Events (CTCAE) version 4.03.
Grade ≤3 drug-related fever or skin or SC tissue disorders localised to the site of injection—including grade ≤3 rash, pruritus, skin induration or pain—were not considered DLTs.
Data for patients with NC and lymphoma were evaluated but not included in the MTD determination.

Cc1sc2c(c1C)C(c1ccc(Cl)cc1)=N[C@@H](CC(=O)NCCCN1CCN(C)CC1)c1nnc(C)n1-2 [RO6870810]
Treatment-emergent AE: Injection site induration (human, 0.06 mg/kg): 0 n (%) | Treatment-emergent AE: Injection site pain (human, 0.06 mg/kg): 1 (33.3) n (%) | Treatment-emergent AE: Injection site pruritus (human, 0.06 mg/kg): 1 (33.3) n (%) | Treatment-emergent AE: Injection site reaction (human, 0.06 mg/kg): 0 n (%) | Treatment-emergent AE: Injection site swelling (human, 0.06 mg/kg): 0 n (%) | Treatment-emergent AE: Malaise (human, 0.06 mg/kg): 1 (33.3) n (%) | Treatment-emergent AE: Myalgia (human, 0.06 mg/kg): 0 n (%) | Treatment-emergent AE: Nausea (human, 0.06 mg/kg): 0 n (%) | Treatment-emergent AE: Thrombocytopenia (human, 0.06 mg/kg): 0 n (%) | Treatment-emergent AE: Vomiting (human, 0.06 mg/kg): 0 n (%) | Treatment-emergent AE: Abdominal pain (human, 0.1 mg/kg): 1 (25.0) n (%) | Treatment-emergent AE: Anemia (human, 0.1 mg/kg): 2 (50.0) n (%) | Treatment-emergent AE: Back pain (human, 0.1 mg/kg): 2 (50.0) n (%) | Treatment-emergent AE: Blood bilirubin increased (human, 0.1 mg/kg): 1 (25.0) n (%) | Treatment-emergent AE: Constipation (human, 0.1 mg/kg): 3 (75.0) n (%) | Treatment-emergent AE: Cough (human, 0.1 mg/kg): 1 (25.0) n (%) | Treatment-emergent AE: Decreased appetite (human, 0.1 mg/kg): 4 (100) n (%) | Treatment-emergent AE: Dehydration (human, 0.1 mg/kg): 2 (50.0) n (%) | Treatment-emergent AE: Diarrhea (human, 0.1 mg/kg): 3 (75.0) n (%) | Treatment-emergent AE: Dizziness (human, 0.1 mg/kg): 2 (50.0) n (%) | Treatment-emergent AE: Dry mouth (human, 0.1 mg/kg): 1 (25.0) n (%) | Treatment-emergent AE: Dysgeusia (human, 0.1 mg/kg): 0 n (%) | Treatment-emergent AE: Dyspnea (human, 0.1 mg/kg): 1 (25.0) n (%) | Treatment-emergent AE: Fatigue (human, 0.1 mg/kg): 3 (75.0) n (%) | Treatment-emergent AE: Headache (human, 0.1 mg/kg): 1 (25.0) n (%) | Treatment-emergent AE: Hypomagnesaemia (human, 0.1 mg/kg): 0 n (%) | Treatment-emergent AE: Injection site erythema (human, 0.1 mg/kg): 2 (50.0) n (%) | Treatment-emergent AE: Injection site induration (human, 0.1 mg/kg): 3 (75.0) n (%) | Treatment-emergent AE: Injection site pain (human, 0.1 mg/kg): 1 (25.0) n (%) | Treatment-emergent AE: Injection site pruritus (human, 0.1 mg/kg): 0 n (%) | Treatment-emergent AE: Injection site reaction (human, 0.1 mg/kg): 0 n (%) | Treatment-emergent AE: Injection site swelling (human, 0.1 mg/kg): 1 (25.0) n (%) | Treatment-emergent AE: Malaise (human, 0.1 mg/kg): 1 (25.0) n (%) | Treatment-emergent AE: Myalgia (human, 0.1 mg/kg): 1 (25.0) n (%) | Treatment-emergent AE: Nausea (human, 0.1 mg/kg): 2 (50.0) n (%) | Treatment-emergent AE: Thrombocytopenia (human, 0.1 mg/kg): 0 n (%) | Treatment-emergent AE: Vomiting (human, 0.1 mg/kg): 4 (100) n (%) | Treatment-emergent AE: Abdominal pain (human, 0.2 mg/kg): 1 (25.0) n (%) | Treatment-emergent AE: Anemia (human, 0.2 mg/kg): 0 n (%) | Treatment-emergent AE: Back pain (human, 0.2 mg/kg): 1 (25.0) n (%) | Treatment-emergent AE: Blood bilirubin increased (human, 0.2 mg/kg): 1 (25.0) n (%) | Treatment-emergent AE: Constipation (human, 0.2 mg/kg): 1 (25.0) n (%) | Treatment-emergent AE: Cough (human, 0.2 mg/kg): 0 n (%) | Treatment-emergent AE: Decreased appetite (human, 0.2 mg/kg): 3 (75.0) n (%) | Treatment-emergent AE: Dehydration (human, 0.2 mg/kg): 0 n (%) | Treatment-emergent AE: Diarrhea (human, 0.2 mg/kg): 1 (25.0) n (%) | Treatment-emergent AE: Dizziness (human, 0.2 mg/kg): 1 (25.0) n (%) | Treatment-emergent AE: Dry mouth (human, 0.2 mg/kg): 1 (25.0) n (%) | Treatment-emergent AE: Dysgeusia (human, 0.2 mg/kg): 1 (25.0) n (%) | Treatment-emergent AE: Dyspnea (human, 0.2 mg/kg): 2 (50.0) n (%) | Treatment-emergent AE: Fatigue (human, 0.2 mg/kg): 2 (50.0) n (%) | Treatment-emergent AE: Headache (human, 0.2 mg/kg): 1 (25.0) n (%) | Treatment-emergent AE: Hypomagnesaemia (human, 0.2 mg/kg): 0 n (%) | Treatment-emergent AE: Injection site erythema (human, 0.2 mg/kg): 3 (75.0) n (%) | Treatment-emergent AE: Injection site induration (human, 0.2 mg/kg): 2 (50.0) n (%) | Treatment-emergent AE: Injection site pain (human, 0.2 mg/kg): 2 (50.0) n (%) | Treatment-emergent AE: Injection site pruritus (human, 0.2 mg/kg): 1 (25.0) n (%) | Treatment-emergent AE: Injection site reaction (human, 0.2 mg/kg): 0 n (%) | Treatment-emergent AE: Injection site swelling (human, 0.2 mg/kg): 2 (50.0) n (%) | Treatment-emergent AE: Malaise (human, 0.2 mg/kg): 1 (25.0) n (%) | Treatment-emergent AE: Myalgia (human, 0.2 mg/kg): 0 n (%) | Treatment-emergent AE: Nausea (human, 0.2 mg/kg): 2 (50.0) n (%) | Treatment-emergent AE: Thrombocytopenia (human, 0.2 mg/kg): 0 n (%) | Treatment-emergent AE: Vomiting (human, 0.2 mg/kg): 2 (50.0) n (%) | Treatment-emergent AE: Abdominal pain (human, 0.3 mg/kg): 1 (16.7) n (%) | Treatment-emergent AE: Anemia (human, 0.3 mg/kg): 2 (33.3) n (%) | Treatment-emergent AE: Back pain (human, 0.3 mg/kg): 0 n (%) | Treatment-emergent AE: Blood bilirubin increased (human, 0.3 mg/kg): 1 (16.7) n (%) | Treatment-emergent AE: Constipation (human, 0.3 mg/kg): 0 n (%) | Treatment-emergent AE: Cough (human, 0.3 mg/kg): 0 n (%) | Treatment-emergent AE: Decreased appetite (human, 0.3 mg/kg): 6 (100) n (%) | Treatment-emergent AE: Dehydration (human, 0.3 mg/kg): 2 (33.3) n (%) | Treatment-emergent AE: Diarrhea (human, 0.3 mg/kg): 2 (33.3) n (%) | Treatment-emergent AE: Dizziness (human, 0.3 mg/kg): 1 (16.7) n (%) | Treatment-emergent AE: Dry mouth (human, 0.3 mg/kg): 2 (33.3) n (%) | Treatment-emergent AE: Dysgeusia (human, 0.3 mg/kg): 1 (16.7) n (%) | Treatment-emergent AE: Dyspnea (human, 0.3 mg/kg): 0 n (%) | Treatment-emergent AE: Fatigue (human, 0.3 mg/kg): 2 (33.3) n (%) | Treatment-emergent AE: Headache (human, 0.3 mg/kg): 3 (50.0) n (%) | Treatment-emergent AE: Hypomagnesaemia (human, 0.3 mg/kg): 1 (16.7) n (%) | Treatment-emergent AE: Injection site erythema (human, 0.3 mg/kg): 3 (50.0) n (%) | Treatment-emergent AE: Injection site induration (human, 0.3 mg/kg): 2 (33.3) n (%) | Treatment-emergent AE: Injection site pain (human, 0.3 mg/kg): 2 (33.3) n (%) | Treatment-emergent AE: Injection site pruritus (human, 0.3 mg/kg): 2 (33.3) n (%) | Treatment-emergent AE: Injection site reaction (human, 0.3 mg/kg): 0 n (%) | Treatment-emergent AE: Injection site swelling (human, 0.3 mg/kg): 2 (33.3) n (%) | Treatment-emergent AE: Malaise (human, 0.3 mg/kg): 1 (16.7) n (%) | Treatment-emergent AE: Myalgia (human, 0.3 mg/kg): 3 (50.0) n (%) | Treatment-emergent AE: Nausea (human, 0.3 mg/kg): 3 (50.0) n (%) | Treatment-emergent AE: Thrombocytopenia (human, 0.3 mg/kg): 1 (16.7) n (%) | Treatment-emergent AE: Vomiting (human, 0.3 mg/kg): 2 (33.3) n (%) | Treatment-emergent AE: Injection site swelling (human, 0.65 mg/kg): 0 n (%) | Recommended phase 2 dose (human, sc): 0.65 mg/kg | DLTs due to thrombocytopenia: no DLTs due to thrombocytopenia | Left ventricular ejection fraction after reduction: 45–50%
